{
  "source": "patent US12606541B2",
  "about": "“PPARg modulators and methods of use” (Eisai R&D Management Co., Ltd., priority 2020, dated 2026)",
  "data": [
    {"target": "T1, His6-TEV-PPARγ-(234-505) (Homo sapiens, UniProt P37231)", "T1 construct": "The His6-TEV-PPARγ-(234-505) protein for assay was expressed and purified; TEV cleavage site (N); made in house", "T1 sequence (P37231 234-505)": "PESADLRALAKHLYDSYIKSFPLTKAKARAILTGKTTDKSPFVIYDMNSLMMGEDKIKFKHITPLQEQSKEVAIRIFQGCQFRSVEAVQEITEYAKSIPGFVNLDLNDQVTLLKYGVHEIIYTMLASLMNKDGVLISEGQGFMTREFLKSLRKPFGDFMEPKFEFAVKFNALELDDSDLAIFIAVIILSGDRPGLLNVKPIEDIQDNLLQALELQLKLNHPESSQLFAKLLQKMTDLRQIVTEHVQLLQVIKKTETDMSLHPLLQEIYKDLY", "experiment": "TR-FRET Assay to Measure Co-R Peptide Recruitment to PPARγ", "type": "biochemical", "settings": "Co-R peptide (SMRT-ID2) recruitment; top final concentration 20 μM; read-out: TR-FRET i-Ag; AC50", "experimental": "(§1) TR-FRET Assay to Measure Co—R Peptide Recruitment to PPARγ\n(§2) The 2× detection solution contained anti-6×His-Terbium antibody (CisBio) and FITC labeled Co—R peptide (SMRT-ID2 from New England Peptide) at final concentrations of 5 and 200 nM respectively.\n(§3) In these assay plates, the positive control in column 24 contained 500 nM (final) T0070907 and the negative control in column 23 contained an identical volume of DMSO. Then, 5 μL of 2+ protein working stock or controls were added to the plate and incubated for 20 minutes at room temperature. Reagents additions were performed with either a Combi (Thermo) or Mantis (Formulatory) pipetting device. The incubation was followed by addition of 5 μL of the 2× detection solution. Plates were covered, centrifuged, and incubated for an additional hour. The TR-FRET data was recorded with an Envision plate reader (Perkin Elmer), using settings recommended by Thermo Fisher. The TR-FRET signal of the positive and negative control's recruitment of FITC-Co—R peptide was used to normalize the TR-FRET signal to percent response and to determine the assay Z prime. Experiments were performed in triplicate and analyzed in GraphPad Prism 7.", "units": {"AC50": "nM"}, "values": [
      {"smiles": "CC1CCC(NC(=O)C2CCN(C(=O)c3cc(-c4ccncc4Cl)[nH]n3)CC2)CC1", "note": "(mixture of isomers) [Example 109, 1-(5-(3-chloropyridin-4-yl)-1H-pyrazole-3-carbonyl)-N-(4-methylcyclohexyl)piperidine-4-carboxamide]", "AC50": 373}
    ]},
    {"target": "T1, His6-TEV-PPARγ-(234-505)", "experiment": "TR-FRET Assay to Measure Co-R Peptide Recruitment to PPARγ", "type": "biochemical", "settings": "Co-R peptide recruitment to PPARγ; read-out: TR-FRET AC50", "experimental": "as §1, §2, §3", "units": {"AC50": "nM"}, "values": [
      {"smiles": "C[C@H]1CC[C@H](NC(=O)C2CCN(C(=O)c3cc(-c4cccnc4)n[nH]3)CC2)CC1", "AC50": "> 1000"},
      {"smiles": "CCC1CCC(NC(=O)C2CCN(C(=O)c3cc(-c4ccnc(OC)c4)[nH]n3)CC2)CC1", "note": "(stereo not shown)", "AC50": "> 1000"},
      {"smiles": "COc1cc(-c2cc(C(=O)N3CCC(C(=O)N[C@H]4CC[C@H](C)CC4)CC3)n[nH]2)ccn1", "AC50": "> 1000"},
      {"smiles": "COc1cc(-c2cc(C(=O)N3CCC(C(=O)N[C@H]4CC[C@](O)(C(F)(F)F)CC4)CC3)n[nH]2)c(Cl)cn1", "AC50": "> 1000"},
      {"smiles": "COc1cc(-c2cc(C(=O)N3CCC(C(=O)NC4CCC(C)(O)CC4)CC3)n[nH]2)c(Cl)cn1", "note": "(stereo not shown)", "AC50": "> 1000"},
      {"smiles": "COc1cc(-c2cc(C(=O)N3CCC(C(=O)NC45COC(C)(C4)C5)CC3)n[nH]2)c(Cl)cn1", "AC50": "> 1000"},
      {"smiles": "COc1cc(-c2cc(C(=O)N3CCC(C(=O)N[C@H]4CC[C@@](C)(O)CC4)CC3)n[nH]2)c(Cl)cn1", "AC50": "> 1000"},
      {"smiles": "COc1cc(-c2cc(C(=O)N3CCC(C(=O)NC(C)c4cnn(C)c4)CC3)n[nH]2)c(Cl)cn1", "note": "(stereo not shown)", "AC50": "> 1000"},
      {"smiles": "COc1cc(-c2cc(C(=O)N3CCC(C(=O)NC45CCC(O)(CC4)C5)CC3)n[nH]2)c(F)cn1", "AC50": "> 1000"},
      {"smiles": "COc1cc(-c2cc(C(=O)N3CCC(C(=O)NC4CCC5(CCCN5)CC4)CC3)n[nH]2)c(F)cn1", "note": "(stereo not shown)", "AC50": "> 1000"},
      {"smiles": "O=C(N[C@H]1CC[C@H](O)CC1)C1CCN(C(=O)c2cc(-c3ccncc3)[nH]n2)CC1", "AC50": "> 1000"},
      {"smiles": "C[C@H]1CC[C@H](NC(=O)C2CCN(C(=O)c3cc(-c4ccncc4)[nH]n3)CC2)CC1", "AC50": "> 1000"},
      {"smiles": "CCC1CCC(NC(=O)C2CCN(C(=O)c3cc(-c4ccncc4)[nH]n3)CC2)CC1", "note": "(stereo not shown)", "AC50": "> 1000"},
      {"smiles": "O=C(NC1CCC(O)CC1)C1CCN(C(=O)c2cc(-c3ccncc3)[nH]n2)CC1", "note": "(stereo not shown)", "AC50": "> 1000"},
      {"smiles": "N#C[C@H]1CC[C@@H](NC(=O)C2CCN(C(=O)c3cc(-c4ccncc4)[nH]n3)CC2)CC1", "AC50": "> 1000"},
      {"smiles": "C[C@H]1CC[C@@H](NC(=O)C2CCN(C(=O)c3cc(-c4ccncc4)[nH]n3)CC2)CC1", "AC50": "> 1000"},
      {"smiles": "CN1CCN(C(=O)C2CCN(C(=O)c3cc(-c4ccncc4)[nH]n3)CC2)CC1", "AC50": "> 1000"},
      {"smiles": "CN1CCCN(C(=O)C2CCN(C(=O)c3cc(-c4ccncc4)[nH]n3)CC2)CC1", "AC50": "> 1000"},
      {"smiles": "CC1CCC(NC(=O)C2CCN(C(=O)c3cc(-c4ccnc(C(=O)O)c4)[nH]n3)CC2)CC1", "note": "(stereo not shown)", "AC50": "> 1000"},
      {"smiles": "O=C(N[C@H]1CC[C@@](O)(C(F)(F)F)CC1)C1CCN(C(=O)c2cc(-c3cc(OC4COC4)ncc3F)[nH]n2)C2(CC2)C1", "note": "(stereo partly shown)", "AC50": "> 1000"},
      {"smiles": "COc1cc(-c2cc(C(=O)N3CC4CC3CC4C(=O)NC3CCC(O)(C(F)(F)F)CC3)n[nH]2)c(F)cn1", "note": "(stereo not shown)", "AC50": "> 1000"},
      {"smiles": "COc1cc(-c2cc(C(=O)N3C[C@@H]4[C@H](C3)[C@H]4C(=O)NCc3cccc(Cl)c3)n[nH]2)c(F)cn1", "AC50": "> 1000"},
      {"smiles": "COc1cc(-c2cc(C(=O)N3CC[C@H](CNC(=O)[C@H]4C[C@@H](C)N[C@@H](C)C4)CC34CC4)n[nH]2)c(F)cn1", "AC50": "> 1000"},
      {"smiles": "COc1cc(-c2cc(C(=O)N3CC[C@H](C(=O)NCC45CC(CN4CC(C)(C)F)C5)CC34CC4)n[nH]2)c(F)cn1", "AC50": "> 1000"},
      {"smiles": "COc1cc(-c2cc(C(=O)N3CC[C@H](C(=O)NC4CCS(=N)(=O)CC4)CC34CC4)n[nH]2)c(F)cn1", "note": "(stereo partly shown)", "AC50": "> 1000"},
      {"smiles": "O=C(N[C@H]1CC[C@H](c2ccccc2)CC1)C1CCN(C(=O)c2cc(-c3ccncc3)[nH]n2)CC1", "AC50": "> 1000"},
      {"smiles": "COc1cc(-c2cc(C(=O)N3CC[C@@H](C(=O)NC4CC[C@H](C(F)(F)F)N(C)C4)CC34CC4)n[nH]2)c(F)cn1", "note": "(mixture of isomers) [(7R)-4-[5-(5-fluoro-2-methoxypyridin-4-yl)-1H-pyrazole-3-carbonyl]-N-[(3RS,6R)-1-methyl-6-(trifluoromethyl)piperidin-3-yl]-4-azaspiro[2.5]octane-7-carboxamide]", "AC50": "> 1000"}
    ]}
  ]
}
